Reference: patent US20020183332A1, “USE OF CYAMEMAZINE IN THE TREATMENT OF ABRUPT BENZODIAZEPHINE WITHDRAWAL” (priority 1999, published 2002)

Legend:
[1] = tested on: benzodiazepine withdrawal syndrome; conditions: LADER et al. 1987, SCHWEIZER et al. 1998; cited from earlier work
[2] = tested on: patients treated with benzodiazepines for 3 months or more and requiring benzodiazepine withdrawal; test: randomized double-blind clinical trial: abrupt benzodiazepine withdrawal with cyamemazine substitution versus gradual withdrawal with bromazepam; format: in vivo; conditions: for patients in whom the withdrawal is still a success: after 6 months; for patients in whom the treatment is successful: after 6 weeks of study, benzodiazepine withdrawal, 168 patients
alcohol uptake in rats = conditions: NAASILA et al. 1998; cited from earlier work

| SMILES | effect on the withdrawal syndrome [1] | patients in whom the withdrawal is still a success [2] | patients in whom the treatment is successful [2] | maximum amplitude of the anxiety rebound ([2]; HARS scale (HAMILTON anxiety scale), cyamemazine group versus bromazepam group) | frequency of occurrence of a withdrawal syndrome ([2]; RICKELS withdrawal scale, cyamemazine group versus bromazepam group) | maximum amplitude of the anxiety rebound ([2]; ZUNG anxiety scale, cyamemazine group versus bromazepam group) | percentage of patients exhibiting an anxiety rebound ([2]; cyamemazine group versus bromazepam group) | action on alcohol uptake (alcohol uptake in rats) |
| --- | --- | --- | --- | --- | --- | --- | --- | --- |
| O=C1CC2(CCCC2)CC(=O)N1CCCCN1CCN(c2ncccn2)CC1 [buspirone] | not shown any significant effect |  |  |  |  |  |  |  |
| O=C1CN=C(c2ccccn2)c2cc(Br)ccc2N1 [bromazepam] |  | 75% | 85% |  |  |  |  |  |
| CC(CN(C)C)CN1c2ccccc2Sc2ccc(C#N)cc21 (stereo not shown) [cyamemazine] |  | 90% | 95% | no significant difference | no significant difference | no significant difference | no significant difference | decrease of alcohol uptake |
